Results as given in PMC6049504 (RNA, 2018).

How the values were obtained:
Assay in all cases: biochemical
[1] = molecular target: TkTrm10 (Thermococcus kodakarensis, UniProt Q5JD38)
[2] = molecular target: TkTrm10 (Thermococcus kodakarensis, UniProt Q5JD38, D206A/D245A)
[3] = molecular target: TkTrm10 (Thermococcus kodakarensis, UniProt Q5JD38, D206L)
[4] = molecular target: TkTrm10 (Thermococcus kodakarensis, UniProt Q5JD38, D206N/D245N)
Chain of TkTrm10 (Thermococcus kodakarensis, UniProt Q5JD38, D206N/D245N) (Q5JD38 whole entry D206N/D245N): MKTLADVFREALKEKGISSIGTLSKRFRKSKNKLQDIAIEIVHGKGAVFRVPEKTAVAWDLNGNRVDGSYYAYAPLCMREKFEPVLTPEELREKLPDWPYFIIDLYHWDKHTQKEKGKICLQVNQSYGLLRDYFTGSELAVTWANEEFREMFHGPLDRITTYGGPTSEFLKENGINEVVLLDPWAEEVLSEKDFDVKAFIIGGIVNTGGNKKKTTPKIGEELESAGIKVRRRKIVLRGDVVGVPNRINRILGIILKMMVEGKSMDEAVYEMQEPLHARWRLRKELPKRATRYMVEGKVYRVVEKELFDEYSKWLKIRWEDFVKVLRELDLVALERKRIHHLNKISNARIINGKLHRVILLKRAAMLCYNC

Chain of TkTrm10 (Thermococcus kodakarensis, UniProt Q5JD38, D206A/D245A) (Q5JD38 whole entry D206A/D245A): as the sequence (Q5JD38 whole entry D206N/D245N) above, with N206A, N245A counted along it
Chain of TkTrm10 (Thermococcus kodakarensis, UniProt Q5JD38, D206L) (Q5JD38 whole entry D206L): as the sequence (Q5JD38 whole entry D206N/D245N) above, with N206L, N245D counted along it
Chain of TkTrm10 (Thermococcus kodakarensis, UniProt Q5JD38) (Q5JD38 whole entry): as the sequence (Q5JD38 whole entry D206N/D245N) above, with N206D, N245D counted along it

- Kd [1]: 9.4 ± 1.2 µM
- Kd [2]: 20.4 ± 2.9 µM
- Kd [3]: 68 ± 19 µM
- Kd [4]: 19.3 ± 3.4 µM
SMILES: C[S+](CC[C@H](N)C(=O)O)C[C@H]1O[C@@H](n2cnc3c(N)ncnc32)[C@H](O)[C@@H]1O (stereo partly shown) [SAM]
